# Test results from ChEMBL document CHEMBL5291721, “A preclinical secondary pharmacology resource illuminates target-adverse drug reaction associations of marketed drugs” (Nat Commun, 2023).
# Columns and labels:
# [1] = target: T1, 5-hydroxytryptamine receptor 1A (Homo sapiens, UniProt P08908)
# T1 sequence (P08908 whole entry): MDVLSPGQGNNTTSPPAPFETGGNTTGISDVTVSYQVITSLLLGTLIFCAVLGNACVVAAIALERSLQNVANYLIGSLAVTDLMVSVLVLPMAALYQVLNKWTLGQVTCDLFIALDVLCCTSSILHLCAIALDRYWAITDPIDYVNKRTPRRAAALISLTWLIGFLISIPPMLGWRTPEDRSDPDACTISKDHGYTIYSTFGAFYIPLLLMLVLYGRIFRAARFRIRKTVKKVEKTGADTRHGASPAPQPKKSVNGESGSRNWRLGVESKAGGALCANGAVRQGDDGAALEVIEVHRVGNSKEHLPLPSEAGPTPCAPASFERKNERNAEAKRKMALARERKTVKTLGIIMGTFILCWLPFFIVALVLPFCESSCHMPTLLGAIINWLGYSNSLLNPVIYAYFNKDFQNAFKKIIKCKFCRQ
# [2] = target: Gamma-aminobutyric acid receptor subunit alpha-1 (Rattus norvegicus, UniProt P62813)
# Sequence of Gamma-aminobutyric acid receptor subunit alpha-1 (P62813 whole entry): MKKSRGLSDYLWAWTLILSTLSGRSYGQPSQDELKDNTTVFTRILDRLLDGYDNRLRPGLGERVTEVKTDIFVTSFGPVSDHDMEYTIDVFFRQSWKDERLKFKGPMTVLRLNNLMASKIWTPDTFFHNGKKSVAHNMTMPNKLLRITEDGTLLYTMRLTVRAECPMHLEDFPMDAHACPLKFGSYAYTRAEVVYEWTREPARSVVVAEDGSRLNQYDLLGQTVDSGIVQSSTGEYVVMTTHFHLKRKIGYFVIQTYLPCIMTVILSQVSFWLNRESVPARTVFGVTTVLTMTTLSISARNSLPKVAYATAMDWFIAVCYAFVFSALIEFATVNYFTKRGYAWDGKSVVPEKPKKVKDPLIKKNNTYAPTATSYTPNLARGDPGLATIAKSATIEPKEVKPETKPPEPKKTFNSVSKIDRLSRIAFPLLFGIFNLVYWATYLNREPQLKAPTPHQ
# [3] = target: T2, Amine oxidase [flavin-containing] A (Homo sapiens, UniProt P21397); format: functional
# T2 sequence (P21397 whole entry): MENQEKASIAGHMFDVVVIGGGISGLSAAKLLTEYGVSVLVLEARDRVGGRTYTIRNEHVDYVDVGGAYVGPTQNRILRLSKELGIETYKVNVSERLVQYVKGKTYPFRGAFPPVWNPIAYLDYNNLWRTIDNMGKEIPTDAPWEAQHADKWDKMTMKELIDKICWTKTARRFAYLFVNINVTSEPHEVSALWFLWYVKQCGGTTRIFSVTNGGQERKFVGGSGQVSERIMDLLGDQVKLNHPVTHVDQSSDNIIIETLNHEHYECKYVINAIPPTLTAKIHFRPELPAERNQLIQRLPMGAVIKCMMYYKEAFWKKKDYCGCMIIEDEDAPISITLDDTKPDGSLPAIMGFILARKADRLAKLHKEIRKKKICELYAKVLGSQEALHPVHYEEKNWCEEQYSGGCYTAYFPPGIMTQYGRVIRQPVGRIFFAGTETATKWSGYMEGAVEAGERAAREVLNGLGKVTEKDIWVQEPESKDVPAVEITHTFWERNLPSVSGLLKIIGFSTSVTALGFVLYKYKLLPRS
# Adenosine receptor A1 = target: T3, Adenosine receptor A1 (Homo sapiens, UniProt P30542)
# T3 sequence (P30542 whole entry): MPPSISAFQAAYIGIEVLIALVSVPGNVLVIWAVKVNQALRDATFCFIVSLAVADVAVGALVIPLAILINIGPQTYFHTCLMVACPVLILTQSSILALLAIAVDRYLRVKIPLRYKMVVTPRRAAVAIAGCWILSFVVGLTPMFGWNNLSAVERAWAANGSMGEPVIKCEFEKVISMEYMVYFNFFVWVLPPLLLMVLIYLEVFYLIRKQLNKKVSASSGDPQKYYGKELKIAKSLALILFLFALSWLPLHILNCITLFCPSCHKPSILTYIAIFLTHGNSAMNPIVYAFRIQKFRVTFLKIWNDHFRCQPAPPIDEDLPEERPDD
# Histamine H3 receptor = Histamine H3 receptor (Homo sapiens, UniProt Q9Y5N1)
# Sequence of Histamine H3 receptor (Q9Y5N1 whole entry): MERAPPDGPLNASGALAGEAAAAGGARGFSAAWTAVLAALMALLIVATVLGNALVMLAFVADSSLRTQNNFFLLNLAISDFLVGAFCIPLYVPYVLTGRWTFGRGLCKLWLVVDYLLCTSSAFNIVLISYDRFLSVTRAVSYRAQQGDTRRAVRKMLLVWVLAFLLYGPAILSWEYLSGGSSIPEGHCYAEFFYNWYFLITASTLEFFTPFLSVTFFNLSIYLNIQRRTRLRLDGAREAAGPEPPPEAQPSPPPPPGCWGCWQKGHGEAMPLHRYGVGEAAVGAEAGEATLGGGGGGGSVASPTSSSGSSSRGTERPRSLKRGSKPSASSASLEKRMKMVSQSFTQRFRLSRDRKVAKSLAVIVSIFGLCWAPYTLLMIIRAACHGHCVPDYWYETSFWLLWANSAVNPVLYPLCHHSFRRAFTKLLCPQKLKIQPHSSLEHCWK
# [4] = target: T4, Alpha-1A adrenergic receptor (Homo sapiens, UniProt P35348)
# T4 sequence (P35348 whole entry): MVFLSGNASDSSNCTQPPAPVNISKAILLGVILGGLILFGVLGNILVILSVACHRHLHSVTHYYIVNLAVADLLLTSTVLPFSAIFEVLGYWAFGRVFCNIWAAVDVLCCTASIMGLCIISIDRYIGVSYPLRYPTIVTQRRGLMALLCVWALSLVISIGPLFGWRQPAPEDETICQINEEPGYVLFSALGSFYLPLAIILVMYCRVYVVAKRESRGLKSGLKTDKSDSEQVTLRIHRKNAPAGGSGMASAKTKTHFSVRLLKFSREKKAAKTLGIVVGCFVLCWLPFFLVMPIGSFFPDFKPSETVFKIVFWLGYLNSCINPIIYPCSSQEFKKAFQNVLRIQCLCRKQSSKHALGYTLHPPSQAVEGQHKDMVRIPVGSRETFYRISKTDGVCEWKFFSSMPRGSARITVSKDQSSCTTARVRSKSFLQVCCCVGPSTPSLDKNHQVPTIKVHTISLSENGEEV
# Thromboxane A2 receptor [5] = target: T5, Thromboxane A2 receptor (Homo sapiens, UniProt P21731); format: functional, cell-based
# T5 sequence (P21731 whole entry): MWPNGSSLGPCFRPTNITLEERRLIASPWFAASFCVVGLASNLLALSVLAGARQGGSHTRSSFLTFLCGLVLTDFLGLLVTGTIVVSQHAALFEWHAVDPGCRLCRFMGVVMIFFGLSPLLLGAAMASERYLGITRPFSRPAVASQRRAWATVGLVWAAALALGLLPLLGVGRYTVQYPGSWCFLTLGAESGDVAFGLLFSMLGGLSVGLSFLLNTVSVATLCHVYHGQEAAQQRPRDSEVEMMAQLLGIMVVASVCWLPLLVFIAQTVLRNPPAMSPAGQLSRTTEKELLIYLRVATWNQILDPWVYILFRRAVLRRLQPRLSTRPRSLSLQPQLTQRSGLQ
# Prothrombin = Prothrombin (Homo sapiens, UniProt P00734); format: functional
# Thromboxane A2 receptor [6] = target: T5, Thromboxane A2 receptor; format: functional, cell-based; remark: listed apart in the source
# D(4) dopamine receptor = target: T6, D(4) dopamine receptor (Homo sapiens, UniProt P21917)
# T6 sequence (P21917 whole entry): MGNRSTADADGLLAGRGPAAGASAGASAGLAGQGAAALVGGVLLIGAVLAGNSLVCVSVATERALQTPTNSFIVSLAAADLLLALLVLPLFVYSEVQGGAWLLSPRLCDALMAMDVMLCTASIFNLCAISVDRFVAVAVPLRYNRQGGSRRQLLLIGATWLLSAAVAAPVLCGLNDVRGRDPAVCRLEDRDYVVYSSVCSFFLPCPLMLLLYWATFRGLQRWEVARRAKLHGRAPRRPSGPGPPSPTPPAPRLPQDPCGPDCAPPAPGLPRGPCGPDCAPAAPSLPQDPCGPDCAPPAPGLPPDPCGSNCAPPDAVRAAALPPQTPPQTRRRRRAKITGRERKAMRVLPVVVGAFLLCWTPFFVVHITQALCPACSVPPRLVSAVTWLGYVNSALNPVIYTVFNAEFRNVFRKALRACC
# [7] = target: Hydroxycarboxylic acid receptor 2 (Homo sapiens, UniProt Q8TDS4)
# Sequence of Hydroxycarboxylic acid receptor 2 (Q8TDS4 whole entry): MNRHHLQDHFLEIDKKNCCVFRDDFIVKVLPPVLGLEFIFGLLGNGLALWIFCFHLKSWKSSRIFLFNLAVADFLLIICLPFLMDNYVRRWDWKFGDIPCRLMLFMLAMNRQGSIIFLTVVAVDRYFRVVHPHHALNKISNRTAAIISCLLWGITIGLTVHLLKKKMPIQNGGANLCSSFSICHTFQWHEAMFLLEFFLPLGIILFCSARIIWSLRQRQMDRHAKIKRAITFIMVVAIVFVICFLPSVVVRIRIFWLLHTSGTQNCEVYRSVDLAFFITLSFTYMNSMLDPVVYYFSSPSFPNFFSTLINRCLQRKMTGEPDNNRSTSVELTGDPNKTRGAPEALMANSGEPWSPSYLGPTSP
# [8] = target: 5-hydroxytryptamine receptor 5A (Homo sapiens, UniProt P47898)
# Sequence of 5-hydroxytryptamine receptor 5A (P47898 whole entry): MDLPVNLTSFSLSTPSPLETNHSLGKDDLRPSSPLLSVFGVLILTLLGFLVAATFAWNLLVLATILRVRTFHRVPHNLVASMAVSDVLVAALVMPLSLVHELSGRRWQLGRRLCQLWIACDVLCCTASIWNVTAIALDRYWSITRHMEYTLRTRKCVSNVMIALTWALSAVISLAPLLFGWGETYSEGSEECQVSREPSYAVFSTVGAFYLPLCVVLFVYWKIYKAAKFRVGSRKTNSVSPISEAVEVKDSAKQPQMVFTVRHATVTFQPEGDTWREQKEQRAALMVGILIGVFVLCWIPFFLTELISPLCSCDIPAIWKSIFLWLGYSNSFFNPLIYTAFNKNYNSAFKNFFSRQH
# Also: assay procedure not described here.
molecule,measurement,setting,value
NCCCC(O)(P(=O)(O)O)P(=O)(O)O [ALENDRONIC ACID],AC50,[1],> 30 µM
same,AC50,[2],> 30 µM
same,AC50,[3],> 30 µM
same,AC50,Adenosine receptor A1,> 30 µM
same,AC50,Histamine H3 receptor,> 30 µM
same,AC50,[4],> 10 µM
same,AC50,Thromboxane A2 receptor [5],> 30 µM
same,AC50,Prothrombin,> 30 µM
same,AC50,Thromboxane A2 receptor [6],> 30 µM
same,AC50,D(4) dopamine receptor,> 10 µM
CCCC(C)(COC(N)=O)COC(=O)NC(C)C (stereo unspecified) [CARISOPRODOL],AC50,[4],> 10 µM
same,AC50,D(4) dopamine receptor,> 10 µM
same,AC50,[7],> 10 µM
CC(=O)OCC(CCn1cnc2cnc(N)nc21)COC(C)=O [FAMCICLOVIR],AC50,[4],> 10 µM
same,AC50,D(4) dopamine receptor,> 10 µM
same,AC50,[7],> 10 µM
COC1=C(OC)C(=O)C(CCCCCCCCCCO)=C(C)C1=O [IDEBENONE],AC50,[8],> 10 µM
same,AC50,[4],> 10 µM
same,AC50,D(4) dopamine receptor,> 10 µM
O=C1CN=C(c2ccccc2)c2cc(Cl)ccc2N1 [NORDAZEPAM],AC50,[8],> 10 µM
same,AC50,[4],> 10 µM
same,AC50,D(4) dopamine receptor,> 10 µM
CC(CCc1ccccc1)NC(C)C(O)c1ccc(O)cc1 (stereo unspecified) [NYLIDRIN],AC50,[8],> 10 µM
same,AC50,D(4) dopamine receptor,> 10 µM
O=C1Nc2ccc(Cl)cc2C(c2ccccc2)=NC1O (stereo unspecified) [OXAZEPAM],AC50,[8],> 10 µM
same,AC50,[4],> 10 µM
same,AC50,D(4) dopamine receptor,> 10 µM
C[n+]1ccccc1/C=N/O [PRALIDOXIME],AC50,[1],> 30 µM
same,AC50,[2],> 30 µM
same,AC50,[3],> 30 µM
same,AC50,Adenosine receptor A1,> 30 µM
same,AC50,Histamine H3 receptor,> 30 µM
same,AC50,Thromboxane A2 receptor [5],> 30 µM
same,AC50,Prothrombin,> 30 µM
same,AC50,Thromboxane A2 receptor [6],> 30 µM
CC(C)CC(N(C)C)C1(c2ccc(Cl)cc2)CCC1 (stereo unspecified) [SIBUTRAMINE],AC50,[4],> 10 µM
same,AC50,D(4) dopamine receptor,> 10 µM
same,AC50,[7],> 10 µM
[H]/N=C(/N)N[C@H]1[C@H](O)[C@@H](O)[C@H](O[C@@H]2O[C@@H](C)[C@](O)(C=O)[C@H]2O[C@@H]2O[C@@H](CO)[C@H](O)[C@@H](O)[C@@H]2NC)[C@@H](N/C(N)=N\[H])[C@@H]1O [STREPTOMYCIN],AC50,[4],> 10 µM
same,AC50,D(4) dopamine receptor,> 10 µM
N#C[C@@H]1CCCN1C(=O)CNC12CC3CC(CC(O)(C3)C1)C2 [VILDAGLIPTIN],AC50,[8],> 10 µM
same,AC50,[4],> 10 µM
same,AC50,D(4) dopamine receptor,> 10 µM
COLISTIN,AC50,[1],> 30 µM
same,AC50,[2],> 30 µM
same,AC50,[3],> 30 µM
same,AC50,Adenosine receptor A1,> 30 µM
same,AC50,Histamine H3 receptor,> 30 µM
same,AC50,Thromboxane A2 receptor [5],> 30 µM
same,AC50,Prothrombin,> 30 µM
same,AC50,Thromboxane A2 receptor [6],> 30 µM
